Literature values as cited in patent publication US20230000809A1, “TREATMENT OF DISORDERS ARISING FROM GENETIC MUTATION” (priority 2021, published 2023).
Structures can show the parent of a compound that is named as a salt.

Assays:
[1] = test system: gadolinium enhancing lesions; settings: RRMS patients; after 24 weeks of treatment as compared to placebo
[2] = test system: nuclear factor kappa B (NF-κB)-dependent transcription of TNF-α induced genes; settings: human endothelial cells, in vitro

Row | SMILES | number of gadolinium enhancing lesions [1] | effect on NF-κB-dependent transcription of TNF-α induced genes [2]
1 | COC(=O)/C=C/C(=O)OC [BG-12] | significant reduction | –
2 | COC(=O)/C=C/C(=O)OC [DMF, dimethyl fumarate] | – | inhibitory effect
